26 compounds from US8846704B2, “Thiopyrimidine-based compounds and uses thereof” (YM Biosciences Austraila Pty Ltd, priority 2007, dated 2014) can be followed below.

SMILES strings stand for the structures.

For this experiment, the target named is T1, BaF3 TELJAK3 cells (Homo sapiens, UniProt P52333).
T1 construct: fused on or other part: TEL (ETV6) N-terminal part, coding nucleotides 1-487, serves as the oligomerising partner; It is fused through a Sal I site to the JAK3 kinase domain and expressed from pTRE2 in BaF3 cells bearing pTET-off; P41212 (Transcription factor ETV6)
T1 sequence (P52333 1-1124): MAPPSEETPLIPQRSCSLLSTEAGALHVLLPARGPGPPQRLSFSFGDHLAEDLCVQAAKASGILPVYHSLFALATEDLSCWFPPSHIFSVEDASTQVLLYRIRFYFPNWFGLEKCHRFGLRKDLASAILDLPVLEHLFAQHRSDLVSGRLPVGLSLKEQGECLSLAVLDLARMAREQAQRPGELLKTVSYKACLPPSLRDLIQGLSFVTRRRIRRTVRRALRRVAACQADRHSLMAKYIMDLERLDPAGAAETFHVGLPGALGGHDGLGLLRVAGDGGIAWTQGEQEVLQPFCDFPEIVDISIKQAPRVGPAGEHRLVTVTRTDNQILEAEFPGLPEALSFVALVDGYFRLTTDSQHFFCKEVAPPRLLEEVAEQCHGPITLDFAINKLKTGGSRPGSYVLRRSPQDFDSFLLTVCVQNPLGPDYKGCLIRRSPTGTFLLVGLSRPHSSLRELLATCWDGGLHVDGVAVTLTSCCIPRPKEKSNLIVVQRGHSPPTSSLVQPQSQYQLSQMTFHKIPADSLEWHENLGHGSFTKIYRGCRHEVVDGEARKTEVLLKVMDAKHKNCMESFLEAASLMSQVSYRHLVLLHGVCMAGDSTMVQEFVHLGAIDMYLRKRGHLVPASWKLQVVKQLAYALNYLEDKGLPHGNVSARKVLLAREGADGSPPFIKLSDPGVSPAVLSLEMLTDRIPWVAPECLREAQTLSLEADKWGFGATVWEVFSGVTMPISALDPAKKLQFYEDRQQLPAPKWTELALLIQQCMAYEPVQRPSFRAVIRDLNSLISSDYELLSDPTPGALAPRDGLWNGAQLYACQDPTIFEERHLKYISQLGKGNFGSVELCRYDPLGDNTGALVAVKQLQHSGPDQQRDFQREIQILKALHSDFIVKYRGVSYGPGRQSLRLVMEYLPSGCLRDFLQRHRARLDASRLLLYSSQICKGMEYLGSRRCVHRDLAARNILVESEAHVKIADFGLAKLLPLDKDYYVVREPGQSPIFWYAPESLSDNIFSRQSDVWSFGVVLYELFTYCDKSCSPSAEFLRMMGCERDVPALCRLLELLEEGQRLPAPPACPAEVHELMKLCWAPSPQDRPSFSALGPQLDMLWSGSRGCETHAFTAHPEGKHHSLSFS
Description: Cellular screening, BaF3 TEL:JAK3 cells, Alamar Blue. Type of experiment: cell-based. Particulars: 40 hr, read-out: BafT_J3 IC50_nM. As for the experimental part: For screening purposes, compounds were diluted in 96 well plates at a concentration of 20 μM. Plates were warmed at 37° C. for 30 minutes before the assay was performed.
The coding region encompassing nucleotides 1-487 of TEL was amplified by PCR using the oligonucleotides STEL (5′-GGAGGATCCTGATCTCTCTCGCTGTGAGAC-3′) [SEQ ID NO 14] and 3TEL (5′-AGGC GTCGACTTCTTCTTCATGGTTCTG-3′) [SEQ ID NO 15] and U937 mRNA as a template. A […] restriction site was incorporated into the STEL primer, and a Sal I restriction site was incorporated into the 3TEL primer. The regions encompassing the kinase domain of JAK2 (nucleotides 2994-3914; JAK2F 5′-ACGC GTCGACGGTGCCTTTGAAGACCGGGAT-3′ [SEQ ID NO 16]; JAK2R 5′-ATAGTTTAGCGGCCGCTCAGAATGAAGGTCATTT-3′) [SEQ ID NO 17] and JAK3 (nucleotides 2520-3469; JAK3F 5′-GAAGTCGACTATGCCTGCCAAGACCCCACGATCTT-3′) [SEQ ID NO 18] were generated by PCR using Taq DNA polymerase (Gibco/BRL) and […] as a template. A Sal I restriction site was incorporated into the forward primer of JAK2 and JAK3, a Not I site was incorporated into the JAK2 reverse primer and a Xba I site was added to the reverse primer of JAK3.
The TEL/Jak3 fusion was prepared by ligation of the JAK3 Sal I/Not I cleaved kinase domain PCR product with the BamH I/Sal I restriction digested TEL product, followed by ligation of the ligation product into the BamH I/Not I digested pTRE2, to give the TEL/Jak3 fusion plasmid pTELJAK3.
The growth factor dependant myelomonocytic cell line BaF3 bearing the pTET-off plasmid (Clontech) was transfected with either pTELJAK2 or pTELJAK3, and the transfected cells were selected for growth-factor independent cell growth. The BaF3 wild-type cells were cultured in DMEM containing 10% FCS, 10% WEHI 3B conditioned medium. The BaF3 TELJAK cells ([…]) were cultured in DMEM 10% Tet-System Approved FBS (without WEHI 3B conditioned medium).
Cell suspensions were prepared by harvesting cells from culture (the cells used in this test were in late log phase growth with high viability.) Cells were diluted in the appropriate growth medium, as described above, to 1.1× final concentration (from 50,000 cell/mL to 200,000 cell/mL, depending on cell line).
Compounds to be tested were added (10 μL, 10× final concentration) to a flat bottomed 96-well plate. The cellular suspension (90 μL per well) was then added, and the plate incubated for 40 hr at 37° C., 5% CO2. Alamar Blue 10 μL per well was added and the plates returned to the incubator for a further 4-6 hours. The plates were then read at 544 nm.
For orientation: Alamar Blue is a resazurin reagent that responds to reducing activity.

On to `C=CC(=O)Nc1cccc(Nc2nccc(Sc3ccccn3)n2)c1` [Compound 2, N-(3-(4-(pyridin-2-ylthio)pyrimidin-2-ylamino)phenyl)acrylamide], for which the GI50 is below 1 µM.

On to `CC#CC(=O)Nc1cccc(Nc2nccc(SC)n2)c1` [Compound 8, N-(3-(4-(methylthio)pyrimidin-2-ylao)phenyl)but-2-ynamide], for which the GI50 was below 5 µM. Then `C=CC(=O)Nc1ccc(Nc2nccc(SC)n2)cc1` [Compound 13, N-(4-(4-(methylthio)pyrimidin-2-ylao)phenyl)acrylamide], with above 20 µM; and `C=CC(=O)Nc1cccc(Nc2nccc(Sc3ccccc3)n2)c1` [Compound 16, N-(3-(4-(phenylthio)pyrimidin-2-ylamino)phenyl)acrylamide], with below 1 µM.

As to `N#CCC(=O)Nc1cccc(Sc2ccnc(Nc3ccc(N4CCOCC4)cc3)n2)c1` [Compound 24, N-(3-(2-(4-morpholinophenylamino)pyrimidin-4-ylthio)phenyl)-2-cyanoacetamide], the GI50 was below 20 µM.

On to `Nc1ccc(Sc2ccnc(Nc3ccc(N4CCOCC4)cc3)n2)cc1` [Compound 27, 4-(4-aophenylthio)-N-(4-morpholinophenyl)pyrimidin-2-ae], for which the GI50 is below 20 µM. Then `OCc1cccc(Sc2ccnc(Nc3ccc(N4CCOCC4)cc3)n2)c1` [Compound 62, (3-(2-(4-Morpholinophenylamino)pyrimidin-4-ylthio)phenyl)methanol], with below 20 µM. Then `OCc1ccc(Sc2ccnc(Nc3ccc(N4CCOCC4)cc3)n2)cc1` [Compound 67, (4-(2-(4-morpholinophenylao)pyrimidin-4-ylthio)phenyl)methanol], with below 20 µM. In the case of `N#CCNCc1cccc(Sc2ccnc(Nc3ccc(N4CCOCC4)cc3)n2)c1` [Compound 68, 2-(3-(2-(4-morpholinophenylao)pyrimidin-4-ylthio)benzylao)acetonitrile] it was below 20 µM. Consider `NCc1cccc(Sc2ccnc(Nc3ccc(N4CCOCC4)cc3)n2)c1` [Compound 75, 4-(3-(aomethyl)phenylthio)-N-(4-morpholinophenyl)pyrimidin-2-ae], for which the GI50 is below 20 µM.

In the case of `C=CC(=O)Nc1ccc(Sc2ccnc(Nc3cc(C)cc(C)c3)n2)cc1` [Compound 82, N-(4-(2-(3,5-dimethylphenylao)pyrimidin-4-ylthio)phenyl)acrylamide], the GI50 was below 5 µM.

As for `c1cc(Sc2ccc(Cn3cnnn3)cc2)nc(Nc2ccc(N3CCOCC3)cc2)n1` [Compound 109, 4-(4-((1H-tetrazol-1-yl)methyl)phenylthio)-N-(4-morpholinophenyl)pyrimidin-2-ae], the GI50 was below 20 µM. In the case of `Cc1cnc(Nc2ccc(O)cc2)nc1Sc1ccc(NC(=O)CCl)cc1` [Compound 193, 2-chloro-N-(4-(2-(4-hydroxyphenylao)-5-methylpyrimidin-4-ylthio)phenyl)acetamide] it was below 1 µM; in that of `Cc1cnc(Nc2cccc(O)c2)nc1Sc1ccc(NC(=O)CCl)cc1` [Compound 194, 2-chloro-N-(4-(2-(3-hydroxyphenylao)-5-methylpyrimidin-4-ylthio)phenyl)acetamide], below 1 µM; in that of `Cc1cnc(Nc2ccc(N3CCOCC3)cc2)nc1Sc1ccc(NC(=O)CSCC(=O)O)cc1` [Compound 230, 2-(2-(4-(5-methyl-2-(4-morpholinophenylao)pyrimidin-4-ylthio)phenylao)-2-oxoethylthio)acetic acid], above 20 µM.

`CC#CC(=O)Nc1cccc(Sc2ccnc(Nc3cccc(N4CCOCC4)c3)n2)c1` [Compound 232, N-(3-(2-(3-morpholinophenylao)pyrimidin-4-ylthio)phenyl)but-2-ynamide]: the GI50 was below 5 µM. As to `COc1ccc(Nc2ncc(C)c(Sc3ccc(N)cc3)n2)cc1OC` [Compound 240, 4-(4-aophenylthio)-N-(3,4-dimethoxyphenyl)-5-methylpyrimidin-2-ae], the GI50 is below 5 µM. In the case of `C=CC(=O)Nc1ccc(Sc2nc(Nc3ccc(C)c(Br)c3)ncc2C)cc1` [Compound 242, N-(4-(2-(3-bromo-4-methylphenylao)-5-methylpyrimidin-4-ylthio)phenyl)acrylamide], the GI50 was below 20 µM. Then `Cc1cnc(Nc2ccc(N3CCN(C)CC3)cc2)nc1Sc1ccc(N)cc1` [Compound 244, 4-(4-aophenylthio)-5-methyl-N-(4-(4-methylpiperazin-1-yl)phenyl)pyrimidin-2-ae], with below 5 µM; and `Cc1cnc(Nc2cccc(N3CCN(C)CC3)c2)nc1Sc1ccc(N)cc1` [Compound 245, 4-(4-aophenylthio)-5-methyl-N-(3-(4-methylpiperazin-1-yl)phenyl)pyrimidin-2-ae], with below 1 µM.

For the compound `C=CC(=O)Nc1ccc(Sc2nc(Nc3ccc(N4CCN(C)CC4)c(OC)c3)ncc2C)cc1` [Compound 249, N-(4-(2-(3-methoxy-4-(4-methylpiperazin-1-yl)phenylao)-5-methylpyrimidin-4-ylthio)phenyl)acrylamide], the GI50 was below 1 µM. In the case of `Cc1cnc(Nc2ccc(N3CCOCC3)cc2)nc1Sc1ccc(N)cc1Cl` [Compound 251, 4-(4-ao-2-chlorophenylthio)-5-methyl-N-(4-morpholinophenyl)pyrimidin-2-ae] it was above 20 µM; in that of `C=CC(=O)Nc1ccc(Sc2nc(Nc3ccc(N4CCC(CO)CC4)cc3)ncc2Br)cc1` [Compound 253, N-(4-(5-bromo-2-(4-(4-(hydroxymethyl)piperidin-1-yl)phenylao)pyrimidin-4-ylthio)phenyl)acrylamide], below 1 µM. In the case of `C=CC(=O)Nc1ccc(Sc2nc(Nc3ccc(N4CCOCC4)nc3)ncc2C)cc1` [Compound 254, N-(4-(5-methyl-2-(6-morpholinopyridin-3-ylao)pyrimidin-4-ylthio)phenyl)acrylamide] it was below 1 µM; in that of `Cc1cc(Sc2nc(Nc3ccc(N4CCOCC4)cc3)ncc2C)ccc1N` [Compound 255, 4-(4-ao-3-methylphenylthio)-5-methyl-N-(4-morpholinophenyl)pyrimidin-2-ae], below 20 µM. Then `C=CC(=O)Nc1ccc(Sc2nc(Nc3ccc(N4CCOCC4)cc3)ncc2C)cc1C` [Compound 259], with below 1 µM.
